Test results reported in patent publication US4551472A, “Unsymmetrical bis-carbamate compounds” (priority 1984, dated 1985).
Values after ≈ are worked out from the molar mass of the structure shown.

How the values were obtained:
[1] = test system: bean aphid (Aphis fabae Scop.); test: whole plant or invertebrate; details: foliar, read-out: Biological Activity in LD50's: Aphid
Description: (§1) The thus-prepared stock suspension contained 0.5 percent by weight of compound. The test concentrations in parts per million by weight employed in the tests described hereinbelow were obtained by appropriate dilutions of the stock suspension with water. The test procedures were as follows:
Adults and nymphal stages of the bean aphid (Aphis fabae Scop.) reared on potted dwarf nasturtium plants at 65°-70° F. and 50-70 percent relative humidity, consistuted with test insects. For testing purposes, the number of aphids per pot was standardized to 100-150 by trimming plants containing excess aphids.
The potted plants (one pot per compound tested) infested with 100-150 aphids, were placed on a revolving turntable and sprayed with 100-110 milliliters of test compound formulation by use of a DeVilbiss spray gun set at 40 psig. air pressure. This application, which lasted 25 seconds, was sufficient to wet the plants to run-off. As a control, 100-110 milliliters of a water-acetone-emulsifier solution containing no test compound were also sprayed on infested plants. […] Temperature and humidity in the test room during the 24 hour holding period were 65°-70° F. and 50-70 percent, respectively. Aphids which fell onto the paper and were unable to remain standing after being uprighted were considered dead. Aphids remaining on the plants were observed closely for movement and those which were unable to move the length of the body upon stimulation by prodding were considered dead. Percent mortality was recorded for various concentration levels.
(§2) In these tests the pesticidal activity of the compounds at the indicated dosage rate against aphid, mite, Southern Armyworm (SA), Mexican Bean Beetle (MBB), and house fly was rated as follows:
(§3) Several of the unsymmetrical bis-carbamoyl sulfide compounds of this invention were tested against related known compounds.

[2] = test system: two-spotted mite (Tetranychus urticae Koch); test: whole plant or invertebrate; details: foliar, read-out: Biological Activity in LD50's: Mite
Description: as §1
Adults and nymphal stage of the two-spotted mite (Tetranychus urticae Koch), reared on Tendergreen bean plants at a temperature of 80±5° F. and at a relative humidity of 50±5 percent, were the test organisms. Infested leaves from a stock culture were placed on the primary leaves of two bean plants six to eight inches in height, growing in a two-and-a-half inch clay pot. 150-200 Mites, a sufficient number for testing, transferred from the excised leaves to the fresh plants in a period of twenty-four hours. Following the twenty-four hour transfer period, the excised leaves were removed from the infested plants. […] The potted plants (one pot per compound) were placed on a revolving turntable and sprayed with 100-110 milliliters of test compound formulation by use of a DeVilbiss spray gun at 40 psig. air pressure. This application, which lasted 25 seconds, was sufficient to wet the plants to run-off. As a control, 100-110 milliliters of a water solution containing acetone and emulsifier in the same concentrations as the test compound formulation, but containing no test compound, were also sprayed on infested plants. The sprayed plants were held at a temperature of 80±5° F. and a 50±5 percent relative humidity for six days, after which a mortality count of motile forms was made. Microscopic examination for motile forms was made on the leaves of the test plants. Any individual which was capable of locomotion upon prodding was considered living.
as §2, §3

[3] = test system: southern armyworm (Spodopera eridania, (Cram.)); test: whole plant or invertebrate; details: Spodoptera eridania, read-out: Biological Activity in LD50's: Southern Armyworm
Description: as §1
Larvae of the southern armyworm (Spodopera eridania, (Cram.)), reared on Tendergreen bean plants at a temperature of 80±5° F. and a relative humidity of 50±5 percent, constituted the test insects.
Potted Tendergreen bean plants of standard height and age were placed on a revolving turntable and sprayed with 100-110 milliliters of test compound formulation by use of a DeVilbiss spray gun set at 10 psig air pressure. This application, which lasted 25 seconds, was sufficient to wet plants to run-off. As a control, 100-110 milliliters of a water-acetone-emulsifier solution containing no test compound were also sprayed on infested plants. When dry, the paired leaves were separated and each one was placed in a 9 centimeter Petri dish lined with moistened filter paper. Five randomly selected larvae were introduced into each dish and the dishes were closed. The closed dishes were labeled and held at 80°-85° F. for three days. Although the larvae could easily consume the whole leaf within twenty-four hours, no more food was added. Larvae which were unable to move the length of the body, even upon stimulation by prodding, were considered dead. Percent mortality was recorded for various concentration levels.
as §2, §3

[4] = test system: Mexican bean beetle (Epilachna varivestis, Muls.); test: whole plant or invertebrate; details: read-out: Biological Activity in LD50's: MBB
Description: as §1
Fourth instar larvae of the Mexican bean beetle (Epilachna varivestis, Muls.), reared on Tendergreen bean plants at a temperature of 80±5° F. and 50±5 percent relative humidity, were the test insects.
Potted Tendergreen bean plants of standard height and age were placed on a revolving turntable and sprayed with 100-110 milliliters of test compound formulation by use of a DeVilbiss strapy gun set at 10 psig air pressure. This application, which lasted 25 seconds, was sufficient to wet plants to run-off. As a control, 100-110 milliliters of a water-acetone-emulsifier solution containing no test compound were also strayed on infested plants. When dry, the paired leaves were separated and each was placed in a 9 centimeter Petri dish lined with moistened filter paper. Five randomly selected larvae were introduced into each dish, and the dishes were closed. The closed dishes were labeled and held at a temperature of 80±5° F. for three days. Although the larvae could easily consume the leaf within 24 to 48 hours, no more food was added. Larvae which were unable to move the length of the body, even upon stimulation, were considered dead.
as §2, §3

[5] = test system: house flies (Musca domestica, L.); test: whole plant or invertebrate; details: read-out: Biological Activity in LD50's: Housefly
Description: as §1
The flies were immobilized individuals, males and females, were transferred to a cage consisting of a standard food strainer about five inches in diameter which was inverted over a wrapping-paper-covered surface. […] Ten milliliters of the test formulation were added to a souffle cup containing a one-inch square of an absorbent cotton pad. This bait cup was introduced and centered on the blotting paper under the food strainer prior to admitting the anesthetized flies. The caged flies were allowed to feed on the bait for twenty-four hours, at a temperature of 80±5° F. and the relative humidity of 50±5 percent.
as §2, §3

[6] = test system: root-knot nematode, Meloidogyne incognita var. acrita; test: Nematocide Test; note: key: 1: severe galling, equal to untreated plants; 2: moderate galling; 3: light galling; 4: very light galling; 5: no galling, perfect control; type: in vivo; details: 3.33 m.g. per jar; cucumber, approximately 3 weeks
Description: The test organism used was the infective migratory larvae of the root-knot nematode, Meloidogyne incognita var. acrita, reared in the greenhouse on roots of cucumber plants. Infected plants were removed from the culture, and the roots are chopped very finely. A small amount of this inoculum was added to a pint jar containing approximately 180 cc. of soil. The jars were capped and incubated for one week at room temperature. During this period eggs of the nematode were hatched, and the larval forms migrated into the soil.
Ten ml. of the test formulation were added to each of the two jars for each dosage tested. Following the addition of chemical, the jars were capped, and the contents thoroughly mixed on a ball mill for 5 minutes.
The test compounds were formulated by a standard procedure of solution in acetone addition of an emulsifier, and dilution with water. Primary screening tests were conducted at 3.33 m.g. of the test compound per jar.
The jars were left capped at room temperature for a period of 48 hours, and the contents then transferred to 3 inch pots. Subsequently, the pots were seeded to cucumber as an indicator crop and placed in the greenhouse where they were cared for in the normal fashion for approximately 3 weeks.
The cucumber plants were then taken from the pots, the soil removed from the roots; and the amount of galling visually rated.
In the test for activity against nematodes (nem) activity was rated as follows: […]

rat = test: Mammalian Toxicity, peroral toxicity to rat; type: in vivo
Description: Certain compounds were also evaluated to determine their peroral toxicity to mammals by conventional methods. The representative animal selected for this experiment was the rat.

Soy = test: Phytotoxicity Test, soy; details: 2500 ppm spray, ten days
Description: (§4) Experiments were also conducted to determine the phytotoxicity of representative compounds with respect to healthy fresh plants. […] The test plants were sprayed in accordance with the procedure described above for the Mite Foliage Spray Test so as to deliver approximately 100 milliliters of test solution to the leaves of each plant tested. The sprayed plants and controls were set aside for approximately one hour to allow the foliage to dry and were then placed in the greenhouse. After ten days the plants were visually inspected to determine the extent of foliage injury. A rating of 1 indicates no perceptible injury; 5 indicates the plant was dead and ratings of 2, 3 and 4 indicate intermediate degrees of injury based upon the number and extent to which leaves were injured.

Bean = test: Phytotoxicity Test, bean; details: 2500 ppm spray, ten days
Description: as §4

Corn = test: Phytotoxicity Test, corn; details: 2500 ppm spray, ten days
Description: as §4

Tom = test: Phytotoxicity Test, tomato; details: 2500 ppm spray, ten days
Description: as §4

Cotton = test: Phytotoxicity Test, cotton; details: 2500 ppm spray, ten days
Description: as §4

| Compound | LC50 [1] [µg/mL] | LC50 [2] [µg/mL] | LC50 [3] [µg/mL] | LC50 [4] [µg/mL] | LC50 [5] [µg/mL] | Biological Activity: Nem (nematode, galling rating) [6] | A.O. Rat LD50 (rat) [Mg/Kg] | Phytotoxicity: Soy (Soy) | Phytotoxicity: Bean (Bean) | Phytotoxicity: Corn (Corn) | Phytotoxicity: Tom (Tom) | Phytotoxicity: Cotton (Cotton) |
| --- | --- | --- | --- | --- | --- | --- | --- | --- | --- | --- | --- | --- |
| CC(C)c1cccc(OC(=O)N(C)SN(C)C(=O)Oc2cccc(C(C)C)c2)c1 | 70 (≈ 168 µM) | > 500 | 62 (≈ 149 µM) | 11 (≈ 26.4 µM) | 150 (≈ 360 µM) |  |  |  |  |  |  |  |
| CNC(=O)Oc1ccc(C(C)(C)C)cc1 | > 500 | > 500 | > 500 | > 500 | > 500 |  |  |  |  |  |  |  |
| CN(SN(C)C(=O)ON=C1SC(C)(C)C(=O)N1C)C(=O)ON=C1CSCCS1 [drawing 88] | > 500 | 6 (≈ 12.8 µM) | 29 (≈ 62 µM) | 22 (≈ 47 µM) | 2 (≈ 4.28 µM) |  |  |  |  |  |  |  |
| CSC(C)=NOC(=O)N(C)SN(C)C(=O)Oc1cccc2ccccc12 [drawing 86] | 8 (≈ 20.3 µM) | 500 (≈ 1270 µM) | 6 (≈ 15.2 µM) | 3 (≈ 7.62 µM) | 24 (≈ 61 µM) |  |  |  |  |  |  |  |
| CN(SN(C)C(=O)Oc1ccc(C(C)(C)C)cc1)C(=O)Oc1ccc(C(C)(C)C)cc1 | > 500 | > 500 | > 500 | > 500 | > 500 |  |  |  |  |  |  |  |
| CN(SN(C)C(=O)Oc1cccc2ccccc12)C(=O)Oc1cccc2ccccc12 | > 500 | > 500 | 80 (≈ 185 µM) | 6 (≈ 13.9 µM) | > 500 |  |  |  |  |  |  |  |
| CSC(C)=NOC(=O)N(C)SN(C)C(=O)Oc1ccc(C(C)(C)C)cc1 [drawing 80] | 40 (≈ 100 µM) | > 500 | 7 (≈ 17.5 µM) | 9 (≈ 22.5 µM) | 35 (≈ 87.6 µM) |  |  |  |  |  |  |  |
| N-[1-Methylthioacetaldehyde O-(N-methylcarbamoyl)oxime]N-[3-(and 4)-isopropylphenyl-(N-methylcarbamoyloxy)]sulfide [XVII] |  |  |  |  |  | 4 | 126.0 | 1 | 1 | 1 | 1 | 1 |
| CSC(C)=NOC(=O)N(C)SN(C)C(=O)Oc1cccc(C(C)C)c1 [drawing 83] | 50 (≈ 130 µM) | 500 (≈ 1300 µM) | 9 (≈ 23.3 µM) | 9 (≈ 23.3 µM) | 15 (≈ 38.9 µM) |  |  |  |  |  |  |  |
| CNC(=O)ON=C1SC(C)(C)C(=O)N1C | 160 (≈ 692 µM) | 280 (≈ 1210 µM) | 30 (≈ 130 µM) | 6 (≈ 25.9 µM) | 25 (≈ 108 µM) |  |  |  |  |  |  |  |
